# Experimental data from patent US7498161B2 (priority 2003, dated 2009).
# Tests used:
# C8161 cells = format: cell-based, human; settings: 50 μM CB1954 alone
# [1] = Scheduling experiment: tolerability of the injections (weight, behaviour); format: in vivo, athymic nude mice; settings: 80 mg/kg intra-peritoneal in 10% acetone/peanut oil
# Method: FIG. 26. Weight (as a measurement of health) in athymic nude mice with A2780 xenograft treated with either HSV 1790, HSV 1716, CB 1954 or a combination of them.
# (§1) The treatment groups were administered with a single direct intratumoural injection of the virus and dose determined for that group. The virus was diluted PBS+10% serum. ‘No virus’ control groups received an intratumoural injection of 100 μl of PBS+10% serum. This day was designated as Experimental Day 0.
# Some tumours bleed slightly after injection but not to a great degree. […] In all the tumours that bleed slightly, the following day the healing process had begun and within 3-5 days there was little evidence of any puncture wound on any tumour.
# (§2) Injections of CB1954 were given to the appropriate groups at days 2, 10 and 15. A dose of 80 mg/kg—the equivalent of approx. 2 mg per mouse—was given. The powdered form of the CB1954 drug (from Sigma) was dissolved in acetone to 10% of the final volume (10 μl per 2 mg). The volume was then made up to 2 mg CB1954 in 100 μl using peanut oil. A syringe was used to mix the drug as peanut oil is thick and viscous. The drug was made up fresh every time.
# The appropriate groups were then injected intra-peritoneal with this solution. Control groups which were not receiving drug were injected intra-peritoneal with a 100 μl solution of 10% acetone in peanut oil.
# A2780 xenograft = assay: Scheduling experiment: virus with or without CB1954, tumour volume in A2780 xenografts; format: in vivo, athymic nude mice; settings: CB1954 alone, no virus, 80 mg/kg intra-peritoneal
# Method: The inventors proceeded to investigate two doses of the virus in combination with CB1954. The doses selected were 10^5 PFU and 10^6 PFU. Both these doses caused some tumour growth delay in earlier experiments.
# The prodrug is given as an 80 mg/kg intra-peritoneal injection, after dissolving the powdered form in 10% acetone and then making up the volume with peanut oil.
# Mice were randomized into treatment groups (treatment regimes shown in Table 2) of 3 animals when tumour diameters were approximately 5 mm (tumour volume […]).
# as §1, §2
# The appropriate groups were then injected intra-peritoneal with this solution. […]
smiles,measurement,setting,value
"NC(=O)c1cc(N2CC2)c([N+](=O)[O-])cc1[N+](=O)[O-] [CB1954, 5-aziridin-1-yl-2,4-dinitrobenzamide]",effect on cells,C8161 cells,no effect
same,behaviour after injection,[1],slightly lethargic for a short period after the injection
same,body weight,[1],did not lose any body weight
same,swelling or irritation at site of injection,[1],No swelling or irritation at the site of injection
same,effect on tumour growth,A2780 xenograft,little effect on tumour growth
